According to patent US10125157B2, “Derivatives of oxazaphosphorines that are pre-activated, use and method of preparation” (priority 2010, dated 2018):
Where two headings read alike, the source gives them in different places.

What was measured:
SK-N-MC (Ewing) = assay: In vitro cytotoxicity, MTS cell viability test, 72 h; assay type: cell-based; conditions: for IC50: Homo sapiens; for cytotoxic activity (in words): SK-N-MC (Ewing) cells
Description: (§1) The cells were seeded in 96-well plates (TPP).
(§2) J. Pharm, 1989, 55, R1-R4.
(§3) The results are expressed as percentage of untreated cells. […] IC50 values were thus calculated for each line. Ifosfamide and squalenol were used as controls.

A549 = assay: as above; assay type: cell-based; conditions: Homo sapiens
Description: as §1, §2, §3

KB 3.1 = assay: as above; assay type: cell-based; conditions: Homo sapiens
Description: as §1, §2, §3

MCF-7 = assay: as above; assay type: cell-based; conditions: Homo sapiens
Description: as §1, §2, §3

MiaPaCa-2 = assay: as above; assay type: cell-based; conditions: Homo sapiens
Description: as §1, §2, §3

B16F10 = assay: as above; assay type: cell-based; conditions: Mus musculus
Description: as §1, §2, §3

MCF-7 MDR = assay: as above; assay type: cell-based; conditions: Homo sapiens
Description: as §1, §2, §3

UW 479 (Glioma) = assay: as above; assay type: cell-based, human; conditions: for IC50: Homo sapiens; for cytotoxic activity (in words): UW 479 (Glioma) cells
Description: as §1, §2, §3

IGR-OV1 (Ovary) = assay: as above; assay type: cell-based, human; conditions: for IC50: Homo sapiens; for cytotoxic activity (in words): IGR-OV1 (Ovary) cells
Description: as §1, §2, §3

several cell lines = assay: In vitro cytotoxicity over the panel of cell lines (MTS); conditions: all cell lines tested, concentrations between 0.1 and 100 μM
From the text: Cytotoxicity of SQ-IFO and SQ-thio-IFO nanoparticles was studied in several cell lines:
• A549: human alveolar basal epithelial cell adenocarcinoma • MCF-7: human breast carcinoma • MCF-7 MDR: multidrug resistant human breast carcinoma • B16F10: mouse melanoma • KB 3.1: human epidermoid carcinoma • M109: mouse lung tumor cells • MiaPaCa-2: human pancreatic carcinoma • UW-479: human pediatric glioma • IGR OV1: human ovarian cancer • SK-N-MC: neuroblastoma, reclassified as Ewing (expression of EWS/Flip-1 oncogene)
The cell lines were maintained in DMEM or RPMI medium supplemented with 10% fetal calf serum and 1% antibiotics (100 U/mL penicillin and 100 μg/mL streptomycin) in an incubator at 37° C. in a humid 5% carbon dioxide atmosphere.
The cells were seeded in 96-well plates (TPP). Seeding was optimized for each line for an incubation time of 72 hours.
A549, MCF-7, B16F10, M109, MiaPaCa-2 cells were seeded at 5·10^3 cells/well. […] cells were seeded at 2·10^3 cells/well, IGR-OV1 cells at 10^4 cells/well and UW479 and SK-N-MC cells at 5·10^4 cells/well.
The compounds SQ-IFO and SQ-thio-IFO were synthesized according to the protocol described above. For each compound, an aqueous suspension of nanoparticles was prepared using the technique described by Fessi, Int. J. Pharm, 1989, 55, R1-R4.
For each compound, different concentrations between 0.1 and 100 μM were tested by serial dilution of a 2 mg/mL stock solution for SQ-IFO and a 10 mg/mL stock solution for SQ-thio-IFO in culture medium.
After 72 hours of incubation, cell viability was determined by observing the reduction of MTS reagent to formazan (CellTiter 96 AQueous One Solution kit, Promega). 20 μL of a 5 mg/mL solution of MTS in PBS were added per well. The incubation time of the MTS was optimized for each cell line; the absorbance at 490 nm was then read using a plate reader (EL808, Biotek).
The results are expressed as percentage of untreated cells. The data were treated with Prism 4 software (Graph Pad Software, San Diego). IC50 values were thus calculated for each line. Ifosfamide and squalenol were used as controls.

M109 = assay: In vitro cytotoxicity, MTS cell viability test, 72 h; assay type: cell-based, mouse; conditions: for IC50: Mus musculus; for cytotoxic activity (in words): M109 cell line
Description: as §1, §2, §3

[1] = Nanoparticle size in aqueous medium; assay type: physicochemical; conditions: for average size of nanoparticles: aqueous suspension prepared by the technique of Fessi, spherical; for size of nanoparticles: self-assembly in an aqueous medium
From the text: For example, the most recent and most promising application concerns the attachment of a squalene residue by this method by adding squalenol or squalene-thiol in the presence of BF3ET2O on the phosphoryl-iminium produced from 4-methoxy-MFI (Schemes 7 and 8). The compounds formed, SQ-4-O-MFI and SQ-4-S-MFI, have two interesting properties. The first is that they are pre-activated forms of MFI due to oxidation in position 4 that can release, in a slightly acidic aqueous medium, the alkylating mustard directly without metabolic activation. The second is that they are capable of self-assembly in an aqueous medium in the form of nanoparticles of a size of about 160 nm.
as §2

[2] = system: RD human pediatric rhabdomyosarcoma model; assay: In vivo efficacy, human rhabdomyosarcoma xenografted in nude mice; conditions: RD xenograft, treated when tumor volume >80 mm^3, preliminary results
Description: In vivo cytotoxic efficacy was evaluated first on a model of human rhabdomyosarcoma xenografted in nude mice. The model used is the RD human pediatric rhabdomyosarcoma model. The cells were first amplified in culture and counted. 10·10^6 cells were injected subcutaneously in both flanks of each mouse. After graft uptake, when tumor volume reached >80 mm^3, the mice were treated with IFO-SQ or placebo.

[3] = Chemical stability of the 4-methoxy analogue; assay type: physicochemical; conditions: releases isophosphoramide mustard rapidly
[4] = compared with the active metabolite of IFO; cited from earlier work

Molecule	in vitro cytotoxicity (in words) (several cell lines)	IC50 (SK-N-MC (Ewing); SK-N-MC, 72 h) [µM]	cytotoxic activity (in words) (SK-N-MC (Ewing))	IC50 (A549; A549, 72 h) [µM]	IC50 (KB 3.1; KB 3-1, 72 h) [µM]	IC50 (MCF-7; MCF7, 72 h) [µM]	IC50 (MiaPaCa-2; MIA PaCa-2, 72 h) [µM]	IC50 (B16F10; B16-F10, 72 h) [µM]	IC50 (MCF-7 MDR; MCF7, 72 h) [µM]	IC50 (UW 479 (Glioma); 72 h) [µM]	cytotoxic activity (in words) (UW 479 (Glioma))	IC50 (IGR-OV1 (Ovary); IGROV-1, 72 h) [µM]	cytotoxic activity (in words) (IGR-OV1 (Ovary))	average size of nanoparticles [1] [nm]	size of nanoparticles [1]	cytotoxic activity (in words) (M109)	IC50 (M109; M109, 72 h) [µM]	other results
O=P1(NCCCl)OCCCN1CCCl (stereo not shown) [Ifosfamide, reference compound]	did not exhibit significant cytotoxicity	–	–	–	–	–	–	–	–	–	–	–	–	–	–	–	–	IC50 (SK-N-MC (Ewing); SK-N-MC (Ewing), 72 h incubation, nanoparticle suspension, MTS, read-out: IC50): > 100 µM; IC50 (A549; A549, 72 h incubation, nanoparticle suspension, MTS, read-out: IC50): > 100 µM; IC50 (KB 3.1; KB 3-1, KB 3.1, 72 h incubation, nanoparticle suspension, MTS, read-out: IC50): > 100 µM; IC50 (MCF-7; MCF7, MCF-7, 72 h incubation, nanoparticle suspension, MTS, read-out: IC50): > 100 µM; IC50 (MiaPaCa-2; MIA PaCa-2, MiaPaCa-2, 72 h incubation, nanoparticle suspension, MTS, read-out: IC50): > 100 µM; IC50 (B16F10; B16-F10, B16F10, 72 h incubation, nanoparticle suspension, MTS, read-out: IC50): > 100 µM; IC50 (MCF-7 MDR; MCF7, MCF-7 MDR, 72 h incubation, nanoparticle suspension, MTS, read-out: IC50): > 100 µM; IC50 (UW 479 (Glioma); UW 479 (Glioma), 72 h incubation, nanoparticle suspension, MTS, read-out: IC50): > 100 µM; IC50 (IGR-OV1 (Ovary); IGROV-1, IGR-OV1 (Ovary), 72 h incubation, nanoparticle suspension, MTS, read-out: IC50): > 100 µM; IC50 (M109; M109, 72 h incubation, nanoparticle suspension, MTS, read-out: IC50): > 100 µM
CC(C)=CCC/C(C)=C/CC/C(C)=C/CC/C=C(\C)CC/C=C(\C)CCCOC1CCOP(=O)(NCCCl)N1CCCl (stereo not shown) [Ifosfamide SQ]	high in vitro cytotoxicity	> 100	not observed	32.5	50	43.6	32.5	73	78.8	> 100	not observed	> 100	not observed	182	about 160 nm	not observed	> 100	tumor volume compared to mice treated with placebo [2]: significant decrease in tumor volume
COC1CCOP(=O)(NCCCl)N1CCCl (stereo not shown) [4-MeO-IFO, 4-methoxy-ifosfamide]	–	–	–	–	–	–	–	–	–	–	–	–	–	–	–	–	–	chemical stability [3]: quite unstable; cytotoxic potency [4]: equivalent to that of the active metabolite of IFO
CC(C)=CCC/C(C)=C/CC/C(C)=C/CC/C=C(\C)CC/C=C(\C)CCC(=O)NCCSC1CCOP(=O)(NCCCl)N1CCCl (stereo not shown) [Ifosfamide-thio-SQ, (2-chloro-ethyl)-[3-(2-chloro-ethyl)-2-oxo-4-mercaptoethylamidosqualen-[1,3,2]oxazaphosphinan-2-yl]-amine]	high in vitro cytotoxicity	19	high cytotoxic activity	5.3	2.96	10.9	4.4	16.9	80	65	high cytotoxic activity	81	high cytotoxic activity	182	about 160 nm	high cytotoxic activity	9.2	–
tris-nor-squalenol [reference compound]	did not exhibit significant cytotoxicity	–	–	–	–	–	–	–	–	–	–	–	–	–	–	–	–	–
